Assay results: patent US5231103A, “Quinolin-2-yl-methoxybenzylhydroxyureas” (Bayer Aktiengesellschaft, priority 1991, dated 1993)

Target: T1, 5-LO (Homo sapiens, UniProt P09917)
T1 construct: release of leukotriene B4 (LTB4) in polymorphonuclear human leucocytes (PMN); endogenous in cells; host or cells: human polymorphonuclear leucocytes (PMN)
T1 sequence (P09917 1-674): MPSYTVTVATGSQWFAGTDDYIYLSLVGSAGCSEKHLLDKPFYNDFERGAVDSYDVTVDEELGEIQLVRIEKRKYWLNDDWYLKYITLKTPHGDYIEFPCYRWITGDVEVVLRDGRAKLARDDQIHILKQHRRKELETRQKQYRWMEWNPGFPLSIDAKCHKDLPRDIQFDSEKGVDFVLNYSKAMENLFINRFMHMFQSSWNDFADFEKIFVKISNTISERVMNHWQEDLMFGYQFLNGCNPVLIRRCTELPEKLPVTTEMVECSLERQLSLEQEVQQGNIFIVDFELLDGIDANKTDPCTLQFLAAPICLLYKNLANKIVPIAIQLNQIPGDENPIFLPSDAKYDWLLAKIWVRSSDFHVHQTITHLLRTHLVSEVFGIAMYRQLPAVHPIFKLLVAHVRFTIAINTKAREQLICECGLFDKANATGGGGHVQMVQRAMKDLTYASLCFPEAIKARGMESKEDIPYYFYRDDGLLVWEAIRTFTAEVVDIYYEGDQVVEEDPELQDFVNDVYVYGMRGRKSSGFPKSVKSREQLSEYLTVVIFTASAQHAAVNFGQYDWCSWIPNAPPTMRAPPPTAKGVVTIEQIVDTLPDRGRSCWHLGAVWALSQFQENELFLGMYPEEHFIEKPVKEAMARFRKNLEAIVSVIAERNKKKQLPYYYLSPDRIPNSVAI
Assay: lipoxygenase inhibition: release of leukotriene B4 (LTB4) in polymorphonuclear human leucocytes (PMN) after Ca ionophore, by reverse phase HPLC
Assay type: cell-based
Settings: LTB4 release in human PMN after addition of substance and Ca ionophore; RP-HPLC
Experimental: As a measure of lipoxygenase inhibition, the release of leukotriene B4 (LTB4) in polymorphonuclear human leucocytes (PMN) after addition of substances and Ca ionophore was determined by means of reverse phase HPLC according to Borgeat, P. et al., Proc. Nat. Acad. Sci., 76, 2148-2152 (1979).

IC50 [µM]	Compound
0.25	NC(=O)N(O)C(c1ccc(OCc2ccc3ccccc3n2)cc1)C1CCCCC1 (centres unmarked) [Example 1, N-[4-(Quinolin-2-yl-methoxy)phenyl-cyclohexyl]methyl-N-hydroxyurea]
1.2	NC(=O)N(O)C(c1ccc(OCc2ccc3ccccc3n2)cc1)C1CCCC1 (centres unmarked) [Example 2, N-[4-(Quinolin-2-yl-methoxy)phenyl-cyclopentyl]methyl-N-hydroxyurea]
